In general, pKi refers to the negative decadic logarithm of the Ki, by convention in mol/L. High values mean a low Ki, low ones a high Ki. In general, Ki refers to a measure of affinity in units of concentration, obtained from inhibition or displacement.

Experimental findings from ChEMBL document CHEMBL4699568, “Crystal structure of Leishmania mexicana cysteine protease B in complex with a high-affinity azadipeptide nitrile inhibitor” (Bioorg Med Chem, 2020) are described below.

A short description of data set [1]: Inhibition of Leishmania mexicana CPB delta CTE mutant using Z-Phe-Arg-7-amido-4-methylcoumarin as substrate preincubated for 2 mins followed by substrate addition by fluorimetric assay.
Data set [2] deals with T1, Procathepsin L (Homo sapiens, UniProt P07711). Briefly: Inhibition of human cathepsin L using Z-Phe-Arg-7-amido-4-methylcoumarin as substrate preincubated for 2 mins followed by substrate addition by fluorimetric assay.
T1 sequence (P07711 whole entry): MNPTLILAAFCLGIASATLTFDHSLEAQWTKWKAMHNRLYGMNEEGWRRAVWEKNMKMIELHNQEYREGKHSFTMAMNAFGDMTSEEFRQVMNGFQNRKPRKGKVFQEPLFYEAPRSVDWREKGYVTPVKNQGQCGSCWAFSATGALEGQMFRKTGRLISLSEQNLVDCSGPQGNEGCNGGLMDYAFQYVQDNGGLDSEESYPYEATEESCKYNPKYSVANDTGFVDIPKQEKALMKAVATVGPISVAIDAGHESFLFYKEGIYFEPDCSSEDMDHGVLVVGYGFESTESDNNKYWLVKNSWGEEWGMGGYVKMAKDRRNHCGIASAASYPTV
The target in data set [3] is Cruzipain (Trypanosoma cruzi, UniProt P25779). The data set can be described thus: Inhibition of recombinant Trypanosoma cruzi cruzain using Z-Phe-Arg-7-amido-4-methylcoumarin as substrate preincubated for 2 mins followed by substrate addition by fluorimetric assay.
Sequence of Cruzipain (P25779 whole entry): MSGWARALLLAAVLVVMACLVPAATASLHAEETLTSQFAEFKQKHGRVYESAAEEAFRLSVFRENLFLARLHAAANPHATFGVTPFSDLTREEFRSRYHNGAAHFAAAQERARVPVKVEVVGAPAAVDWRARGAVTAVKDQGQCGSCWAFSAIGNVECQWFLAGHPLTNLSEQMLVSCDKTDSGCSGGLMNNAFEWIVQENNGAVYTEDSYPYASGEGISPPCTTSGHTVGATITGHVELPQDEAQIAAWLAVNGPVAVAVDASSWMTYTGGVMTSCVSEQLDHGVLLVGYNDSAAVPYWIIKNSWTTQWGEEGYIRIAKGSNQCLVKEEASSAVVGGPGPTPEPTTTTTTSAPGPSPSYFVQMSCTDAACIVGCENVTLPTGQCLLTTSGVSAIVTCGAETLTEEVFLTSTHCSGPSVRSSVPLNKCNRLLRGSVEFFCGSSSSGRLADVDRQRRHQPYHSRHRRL
Data set [4] relates to Leishmania mexicana. The data set can be described thus: Inhibition of Leishmania mexicana CPB delta CTE mutant assessed as on rate constant.
In data set [5] the target is Cruzipain (Trypanosoma cruzi) (UniProt P25779). The data set can be described thus: Inhibition of recombinant Trypanosoma cruzi cruzain assessed as on rate constant.
Sequence of Cruzipain (Trypanosoma cruzi) (P25779 123-467 limits assumed): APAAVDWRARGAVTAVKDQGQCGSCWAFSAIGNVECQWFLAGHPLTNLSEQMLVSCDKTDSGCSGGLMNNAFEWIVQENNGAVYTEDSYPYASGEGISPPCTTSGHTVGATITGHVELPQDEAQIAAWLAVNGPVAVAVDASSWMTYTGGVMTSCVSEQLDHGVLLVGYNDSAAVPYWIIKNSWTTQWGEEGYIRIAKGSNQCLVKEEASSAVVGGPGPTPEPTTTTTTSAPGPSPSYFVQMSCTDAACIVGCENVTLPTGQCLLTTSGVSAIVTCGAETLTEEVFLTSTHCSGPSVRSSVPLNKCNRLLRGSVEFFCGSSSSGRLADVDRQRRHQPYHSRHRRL
The target in data set [6] is cathepsin L (Procathepsin L) (Homo sapiens, UniProt P07711). The data set can be described thus: Inhibition of human cathepsin L assessed as off rate constant. To be noted: human cathepsin L enzyme, read-out: K.
Sequence of cathepsin L (Procathepsin L) (P07711 whole entry): as the sequence (P07711 whole entry) above
Data set [7] addresses Cruzipain (Trypanosoma cruzi) (UniProt P25779). Briefly: Inhibition of recombinant Trypanosoma cruzi cruzain assessed as off rate constant.
The subject of data set [8] is Leishmania mexicana. Briefly: Inhibition of Leishmania mexicana CPB delta CTE mutant assessed as off rate constant.
Data set [9] deals with T1, Procathepsin L. The data set can be described thus: Inhibition of human cathepsin L assessed as on rate constant.

Molecules are shown by their SMILES.

Molecule `N#CCNC(=O)[C@H](Cc1ccc(O)cc1)NC(=O)c1ccccc1` registered a pKi in [1] of 5.7. The same molecule showed a Ki in [2] of 0.0794 µM.
The matching figures for `N#CCNC(=O)[C@H](Cc1cccc(Cl)c1)NC(=O)c1ccccc1`: 5.2 and 0.02 µM.
For `CC(C)C[C@H](NC(=O)c1ccccc1)C(=O)NC1(C#N)CC1`, the pKi in data set [1] is reported as 6.8.
`CC(C)(C)OC(=O)N[C@@H](Cc1cccc(Cl)c1)C(=O)NCC#N`: the pKi in data set [1] is listed as 5.2. In data set [2], this molecule showed a Ki of 0.251 µM.
In data set [1], `Cn1nc(C(F)(F)F)cc1C(=O)N[C@@H](Cc1ccccc1)C(=O)NCC#N` showed a negative logarithm of the Ki (pKi) of 7. Also, the Ki was 0.501 µM in data set [3] and 0.0251 µM in data set [2].
With `CC(C)C[C@H](NC(=O)c1cc(C(C)(C)C)nn1C)C(=O)NC1(C#N)CC1`, the pKi in data set [1] is given as 8.3. For the same molecule, in data set [2], the Ki is 0.0126 µM.
For the molecule `CC(C)C[C@H](NC(=O)C(C)(C)c1ccccc1)C(=O)NC1(C#N)CC1`, the pKi in data set [1] turned out to be 6.4. Also, the Ki in [3] was 0.158 µM; in data set [2] it was 0.0398 µM.
In [1], `CC(C)(C)OC(=O)N[C@@H](Cc1ccccc1)C(=O)NCC#N` gave a pKi of 5.8. In data set [3], the Ki was 2.51 µM.
`Cn1nc(C(C)(C)C)cc1C(=O)N[C@@H](Cc1cccc(Cl)c1)C(=O)NCC#N`: the pKi in data set [1] is on record as 6.6. The same molecule showed a Ki in data set [2] of 0.00126 µM.
Take `CC(C)C[C@H](NC(=O)Cc1ccccc1)C(=O)NC1(C#N)CC1`: the pKi in data set [1] came out at 7.2. For the same molecule, the Ki in [3] was 0.0398 µM; in data set [2], 0.0631 µM.
In data set [1], `N#CCNC(=O)[C@H](Cc1ccccc1)NC(=O)c1ccco1` gave a negative logarithm of the Ki (pKi) of 6.3. The molecule also gave an inhibitory constant (Ki) in data set [2] of 0.501 µM.
Consider `N#CCNC(=O)[C@H](Cc1ccc(OC(=O)c2ccccc2)cc1)NC(=O)c1ccccc1`, for which the pKi in data set [1] was determined as 6.9. Besides, the Ki in data set [2] was 0.251 µM.
The matching figures for `N#CCNC(=O)[C@H](Cc1ccccc1)NC(=O)c1ccccc1`: 6.6 and 0.126 µM.
In turn, `CN(C#N)N(C)C(=O)[C@H](Cc1ccccc1)NC(=O)c1cc(C(C)(C)C)nn1C` gave a pKi in [1] of 9.7. In addition, the K was 1 10^-6/M/s in data set [4]; 7.7e+06 M⁻¹ s⁻¹ in [5]; 12 10^-6/s in data set [7]; 0.2 10^-6/s in data set [8]; 700000 M⁻¹ s⁻¹ in [9]. Besides, the koff in [6] turned out to be 8e-08 s⁻¹. Moreover, the Ki in data set [2] was 0.000126 µM.
In turn, `CC(C)C[C@H](NC(=O)c1cc(C(C)(C)C)nn1C)C(=O)NCC#N` returned a pKi in [1] of 7.6. The molecule further gave a Ki in data set [2] of 0.0251 µM.
In turn, `CC(C)C[C@H](NC(=O)C1(c2ccccc2)CC1)C(=O)NC1(C#N)CC1` showed a pKi in data set [1] of 7.2. The Ki in data set [3] is 0.0251 µM; in data set [2], 0.00501 µM.
The matching figures for `CC[C@@H](C)[C@H](NC(=O)c1ccccc1)C(=O)NC1(C#N)CC1`: 5.5, 25.1 µM and 3.16 µM.
With `N#CCNC(=O)[C@H](Cc1c[nH]c2ccccc12)NC(=O)c1ccccc1`, the pKi in data set [1] is recorded as 6.1. This molecule had a Ki in data set [2] of 0.0501 µM.
In the case of `Cn1nc(C(C)(C)C)cc1C(=O)N[C@@H](Cc1ccccc1)C(=O)NCC#N`, in data set [1], the pKi is listed as 7.4. In addition, the Ki in [2] was 0.00398 µM.
As to `N#CC1(NC(=O)[C@H](Cc2ccccc2)NC(=O)c2ccccc2)CC1`, in data set [1], the pKi was 6.8. This molecule gave a Ki in data set [2] of 0.0501 µM.
`CC(C)C[C@H](NC(=O)C(F)(F)c1ccccc1)C(=O)NC1(C#N)CC1` yielded a pKi in data set [1] of 6.8. Moreover, the Ki in [3] was 0.0631 µM; in data set [2] it was 0.0316 µM.
As to `N#CCNC(=O)C1(NC(=O)c2ccccc2)CCCC1`, the pKi in [1] was 4.3. The molecule also had a Ki in data set [2] of 10 µM.
The matching figures for `Cn1nc(C(C)(C)C)cc1C(=O)N[C@@H](Cc1ccccc1)C(=O)NC1(C#N)CC1`: 7.3 and 0.00501 µM.
With `N#CCNC(=O)[C@H](Cc1ccccc1)NC(=O)c1c[nH]c(=O)[nH]c1=O`, the pKi in [1] is 6.5. In addition, the results for the Ki in data set [3] and in [2] were 1.26 µM and 1 µM, respectively.
In data set [1], `CC(C)(C#N)NC(=O)[C@H](Cc1ccccc1)NC(=O)c1ccccc1` had a pKi of 5.7. Further, the Ki in [2] is 0.631 µM.
`CC(C)C[C@H](NC(=O)C1(c2ccccc2)CCC1)C(=O)NC1(C#N)CC1` displayed a pKi in [1] of 7.6. Further, the Ki in data set [3] is 0.02 µM; in [2], 0.00501 µM.
As to `N#CCNC(=O)[C@H](Cc1ccccc1)NC(=O)c1cccs1`, the pKi in data set [1] is 6.4. Besides, the Ki in data set [2] was 0.501 µM.
`CC(C)C[C@H](NC(=O)OC(C)(C)C)C(=O)NCC#N`: the pKi in [1] came to 5.8. In [2], this molecule showed a Ki of 2.51 µM.
Consider `N#CCNC(=O)[C@@H](Cc1ccccc1)NC(=O)c1ccccc1`, for which the pKi in data set [1] is 5.9. Further, the Ki was 6.31 µM in data set [3] and 1.58 µM in data set [2].
Molecule `N#CCNC(=O)[C@H](Cc1ccccc1)NC(=O)c1cncc(Br)c1` had a pKi in data set [1] of 6.9. Besides, the Ki in data set [3] is 0.158 µM; in [2] it was 0.01 µM.
As to `N#CCNC(=O)[C@H](Cc1ccccc1)NC(=O)OCc1ccccc1`, in [1], the negative-log Ki (pKi) was 6.6. For the same molecule, the Ki in data set [2] was 0.126 µM.
Molecule `N#CCNC(=O)[C@H](Cc1ccccc1)NC(=O)c1cnccn1` yielded a pKi in data set [1] of 6.2. For the same molecule, the values for the inhibition constant (Ki) in data set [3] and in data set [2] were 6.31 µM and 1 µM, respectively.
As to `N#CC1(NC(=O)C2(NC(=O)c3ccccc3)CCCC2)CC1`, the pKi in [1] came out at 5.2. For the same molecule, the Ki was 12.6 µM in [3] and 3.98 µM in [2].
Molecule `CC(C)C[C@H](NC(=O)c1cc(C(C)(C)C)nn1C)C(=O)N(C)N(C)C#N` displayed a negative logarithm of the Ki (pKi) in data set [1] of 9.7. The results for the K in data set [4] and in data set [8] were 0.22 10^-6/M/s and 0.04 10^-6/s, respectively. Further, the Ki in [2] was 0.000501 µM.
In data set [1], `N#CCNC(=O)[C@H](Cc1ccccc1)NC(=O)c1cncnc1` gave a pKi of 6.2. Further, the Ki is 5.01 µM in data set [3] and 1 µM in [2].
`CC(C)C[C@H](NC(=O)OC(C)(C)C)C(=O)NC1(C#N)CC1` yielded a pKi in [1] of 6.3. In data set [2], this molecule showed a Ki of 0.631 µM.
